From ChEMBL document CHEMBL1150446, “Inhibition of human cytomegalovirus protease by benzoxazinones and evidence of antiviral activity in cell culture” (Bioorg Med Chem Lett, 1997)

How the values were obtained:
Chymotrypsinogen B [1] = target: T1, Chymotrypsinogen B (Homo sapiens, UniProt P17538); assay: Inhibitory concentration against human chymotrypsin
[2] = In vitro biological half-life was measured in human plasma; assay type: ADME
Neutrophil elastase = target: T2, Neutrophil elastase (Homo sapiens, UniProt P08246); assay: Inhibitory concentration against human leukocyte elastase (HLE)
T2 sequence (P08246 whole entry): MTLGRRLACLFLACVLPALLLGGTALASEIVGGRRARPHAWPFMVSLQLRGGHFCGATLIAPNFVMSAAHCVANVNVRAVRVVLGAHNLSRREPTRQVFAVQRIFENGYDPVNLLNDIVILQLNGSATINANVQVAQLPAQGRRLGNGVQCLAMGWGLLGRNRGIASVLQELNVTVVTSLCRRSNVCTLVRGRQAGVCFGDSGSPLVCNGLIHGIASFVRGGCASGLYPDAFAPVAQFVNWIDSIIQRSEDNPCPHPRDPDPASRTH

[3] = target: T3, Neutrophil elastase (Homo sapiens) (UniProt P08246); assay: Percent inhibition against human leukocyte elastase (HLE) at a concentration of 100 microgM
T3 sequence (whole entry): T2 sequence (P08246 whole entry)

Chymotrypsinogen B [4] = target: T1, Chymotrypsinogen B; assay: Inhibitory concentration against human chymotrypsin at a concentration of 100 uM
Chymotrypsinogen B [5] = target: T1, Chymotrypsinogen B; assay: Inhibitory concentration against human chymotrypsin at a concentration of 10 uM
[6] = target: T3, Neutrophil elastase (Homo sapiens); assay: Percent inhibition against human leukocyte elastase (HLE) at a concentration of 10 microgM

T1 sequence (P17538 34-164 limits assumed, other chains not shown): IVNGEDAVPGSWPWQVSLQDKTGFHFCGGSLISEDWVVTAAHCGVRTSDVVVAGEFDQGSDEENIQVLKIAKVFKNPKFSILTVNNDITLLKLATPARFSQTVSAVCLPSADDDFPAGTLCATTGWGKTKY
T1 sequence (P17538 167-263 limits assumed, other chains not shown): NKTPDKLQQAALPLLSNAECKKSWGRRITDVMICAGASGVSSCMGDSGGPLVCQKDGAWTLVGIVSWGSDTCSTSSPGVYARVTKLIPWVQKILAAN

## Cc1c(NC(=O)OC(C)(C)C)ccc2nc(N[C@H](C)c3ccccc3)oc(=O)c12
Chymotrypsinogen B [1]
  IC50: 42000 nM
[2]
  half-life: 30 min

## Cc1cccc2nc(N[C@@H](C)c3ccccc3)oc(=O)c12
Chymotrypsinogen B [1]
  IC50: 180 nM
Neutrophil elastase
  IC50: 44 nM
[2]
  half-life: 70 min

## Cc1cccc2nc(N[C@H](C)c3ccccc3)oc(=O)c12
Chymotrypsinogen B [1]
  IC50: 88 nM
[2]
  half-life: 67 min

## Cc1cccc2nc(N[C@H](C)c3ccc(Br)cc3)oc(=O)c12
Chymotrypsinogen B [1]
  IC50: 140 nM
Neutrophil elastase
  IC50: 20 nM
[2]
  half-life: 50 min

## Cc1c(N(C)C)ccc2nc(N[C@H](C)c3ccccc3)oc(=O)c12
Chymotrypsinogen B [1]
  IC50: 65 nM
Neutrophil elastase
  IC50: 3200 nM
[2]
  half-life: 127 min

## Cc1cccc2nc(NC(C)C)oc(=O)c12
Chymotrypsinogen B [1]
  IC50: 2000 nM
Neutrophil elastase
  IC50: 33 nM
[2]
  half-life: 107 min

## Cc1c(NC(=O)CN2CCCC2)ccc2nc(N[C@H](C)c3ccccc3)oc(=O)c12
[3]
  inhibition: 36%
Chymotrypsinogen B [4]
  inhibition: 47%
[2]
  half-life: 32 min

## Cc1c(NC(=O)CN(C)C)ccc2nc(N[C@H](C)c3ccccc3)oc(=O)c12
[3]
  inhibition: 67%
Chymotrypsinogen B [1]
  IC50: 2600 nM
[2]
  half-life: 32 min

## Cc1c(NC(=O)c2ccccn2)ccc2nc(N[C@H](C)c3ccccc3)oc(=O)c12
Chymotrypsinogen B [5]
  inhibition: 28%
[6]
  inhibition: 29%
[2]
  half-life: 31 min

## COc1ccc(S(=O)(=O)Nc2ccc3nc(N[C@H](C)c4ccccc4)oc(=O)c3c2C)cc1
[3]
  inhibition: 66%
Chymotrypsinogen B [1]
  IC50: 3600 nM
[2]
  half-life: 50 min
